Key:
HIV-1IIIB = test: PBMC cell-based anti-HIV assay; conditions: PBMCs
Description: (§1) For the standard PBMC assay, PHA-P stimulated cells from at least two normal donors were pooled, diluted in fresh medium to a final concentration of 1 x 10^6 cells/mL, and plated in the interior wells of a 96 well round bottom microplate at 50 µL/well (5 x 10^4 cells/well). Test drug dilutions were prepared at a 2X concentration in microfuge tubes and 100 µL of each concentration was placed in appropriate wells in a standard format. A predetermined dilution of virus stock was placed in each test well (50 µL, final MOI ≅ 0.1). Wells with cells and virus alone were used for virus control. Separate plates were prepared identically without virus for drug cytotoxicity studies using an XTT assay system. The PBMC cultures were maintained for seven days following infection, at which time cell-free supernatant samples were collected and assayed for reverse transcriptase activity as described below.
Reverse Transcriptase Activity Assay: A microtiter based reverse transcriptase (RT) reaction was utilized as described by Buckheit et al., (1991), AIDS Research and Human Retroviruses, 7:295-302. Tritiated thymidine triphosphate (^3H-TTP) was suspended in distilled H2O at 5 Ci/mL. […] Opti-Fluor-O (Packard) was added to each sample and incorporated radioactivity was quantified utilizing a Wallac 1450 MicroBeta Plus liquid scintillation counter. […]

HIV-1ROJO = test: Reverse transcriptase activity assay in infected PBMCs; type: cell-based; conditions: PBMCs
Description: PBMCs were isolated from fresh human blood obtained commercially from the American Red Cross (Baltimore, Maryland). CEM-SS cells were obtained from the NIH AIDS reagent program. The low passage, lymphotropic clinical isolate ROJO was obtained from a pediatric patient attending the AIDS Clinic at the University of Alabama at Birmingham. Phytohemagglutinin (PHA-P) was obtained from Sigma Chemical Co. (St. Louis, MO) and recombinant IL-2 was obtained from Amgen (San Francisco, CA). As a positive control for antiviral assays, AZT was obtained from the NIH AIDS Reagent Program. HIV-1RF also was obtained from the NIH AIDS reagent program. Tritiated thymidine triphosphate was obtained from New England Nuclear (Boston, MA). Each plate in each experiment contained cell control wells (cells only), virus control wells (cells plus virus), drug toxicity control wells (cells plus drug only), drug colorimetric control wells (drug only) as well as experimental wells (drug plus cells plus virus).
Fresh human PBMCs were isolated from voluntary Red Cross donors, seronegative for HIV and HBV. Leukophoresed blood was diluted 1:1 with Dulbecco's PBS, layered over 14 mL of Ficoll-Hypaque density gradient in a 50mL centrifuge and then centrifuged for 30 minutes at 600 x g. Banded PBMCs were gently aspirated from the resulting interface and subsequently washed twice with PBS by low speed centrifugation. […] PBMCs were maintained in this medium at a concentration of 1-2 x 10^6 cells/mL with bi-weekly medium changes until used in the assay.
as §1
Virus Preparation: Pre-tittered aliquots of HIV-1ROJO and HIV-1RF were removed from the freezer (-80°C) and thawed to room temperature in a biological safety cabinet. The virus was resuspended and diluted into tissue culture medium such that the amount of virus added to each well in a volume of 50 µL will be the amount determined to give complete cell killing at 6 days post-infection.
Reverse Transcriptase Activity Assay: A microtiter based reverse transcriptase (RT) reaction was utilized as described by Buckheit et al., (1991), AIDS Research and Human Retroviruses, 7:295-302. Tritiated thymidine triphosphate (^3H-TTP) was suspended in distilled H2O at 5 Ci/mL. Poly rA and oligo dT were prepared as a stock solution which was kept at -20°C. RT reaction buffer was prepared fresh on a daily basis and contained 125 µL 1M EGTA, 125 µL dH2O, 110 µL 10% SDS, 50 µL 1M Tris (pH 7.4), 50 µL 1M DTT, and 40 µL 1M MgCl2. These three solutions were mixed together in a ratio of 2 parts ^3H-TTP, 1 part poly rA:oligo dT, and 1 part reaction buffer. Ten microliters of this reaction mixture were placed in a round bottom microtiter plate and 15 µL of virus containing supernatant were added and mixed. The plate was incubated at 37°C in a water bath with a solid support to prevent submersion of the plate and incubated for 60 minutes.

SMILES: Cc1cn([C@H]2C[C@H](N=[N+]=[N-])[C@@H](CO)O2)c(=O)[nH]c1=O [AZT, reference compound]
- IC50 (HIV-1IIIB): 2 nM
- IC50 (HIV-1ROJO; 2hr pretreatment): 4 nM
- IC50 (HIV-1ROJO; without pretreatment): 8 nM

— patent publication EP1143981B1, “USE OF N-GLYCOLNEURAMINIC ACID AND ITS DERIVATIVES FOR THE MANUFACTURE OF A MEDICAMENT FOR THE TREATMENT OF HIV INFECTIONS” (Glukor, Inc., priority 1998, dated 2000)
